Assay results as given in PubChem BioAssay AID1845194 (Molecular Pharmacology Branch, DTP, NCI, 2023).
Where “and” joins values, the source holds several entries; their conditions need not be identical. Identical values can stand only once.

Test system: 287954-098-R-J1 tumor spheroid viability
Assay: Anticancer human tumor 287954-098-R-J1 patient-derived Ewing sarcoma cell line growth inhibition
Settings: spheroids with HUVEC and MSC; for viability, T/C: stronger effect = lower value
From the text: Multicellular complex tumor spheroid response to DNA repair inhibitors in combination with DNA-damaging drugs
This study explores the anticancer activities of DNA-damaging drugs and inhibitors of DNA damage repair, both as single agents and in combinations. Complex tumor spheroids comprised of malignant cells, endothelial cells and mesenchymal stem cells served as an in vitro model for human solid tumors. This model system incorporates physiologically relevant features and patient-derived or established malignant cell lines with clinically relevant genetic alterations from many tumor types. Twenty-six patient-derived or established malignant cell lines were evaluated representing sarcoma, melanoma, small cell lung cancer (SCLC), non-small cell lung cancer (NSCLC), as well as bladder, ovarian and pancreatic cancers. The concentration ranges selected for each drug and investigational agent were based upon clinically achievable concentrations if the clinical Cmax of the agent was known.
Compounds. The drugs and compounds olaparib (NSC753686), talazoparib (NSC767125), berzosertib (NSC777718), elimusertib (NSC800525), nedisertib (NSC802822), VX-984 (NSC792969), AZD-1390 (NSC803789), temozolomide (NSC362856), topotecan (NSC609699), trabectedin (NSC813783), staurosporine (NSC755774), and gemcitabine (NSC613327) were obtained from the National Cancer Institute (NCI) Developmental Therapeutics Program Chemical Repository. The FDA-approved anticancer drug set is available from the Developmental Therapeutics Program at https://dtp.cancer.gov/organization/dscb/obtaining/available_plates.htm. […] The stock solutions were prepared in dimethyl sulfoxide (DMSO, Sigma-Aldrich, St. Louis, MO, cat. D2650) at 400-fold the tested concentration and stored at -70 degrees C. Prior to their use, the stock solutions were diluted in fresh medium and the final DMSO concentration in the assay was 0.25% (v/v). All drugs and investigational agents were tested over a range starting from a high concentration at or near the clinical Cmax and decreasing in half-log increments. If the clinical Cmax for an agent had not been determined, the highest concentration tested was 10 microM.
Cell Lines. The patient-derived cancer cell (PDC) lines: 156681-154-R-J1-PDC, 283228-195-R-J1-PDC, 287954-098-R-J1-PDC, 292921-168-R-J2-PDC, 349418-098-R-PDC, 425362-245-T-J1-PDC, 556581-035-R-J1-PDC, and BL0293-F563-PDC were received from the NCI Patient-Derived Models Repository (PDMR, https://pdmr.cancer.gov). The established cell lines HS-SY-2 (RRID:CVCL_8719), MPNST, and SYO-1 (RRID:CVCL_7146) were obtained from the Sloan Kettering Institute. The alveolar soft parts sarcoma cell line ASPS-1 (RRID:CVCL_S738) was established at the NCI and grown from internal seed stocks. The following established cell lines were purchased from the American Type Culture Collection (ATCC, Manassas, VA): G-401 (ATCC, cat. CRL-1441, RRID:CVCL_0270), SW982 (ATCC, cat. HTB-93, RRID:CVCL_1734), VA-ES-BJ (ATCC, cat. CRL-2138, RRID:CVCL_1785), NCI-H719 (ATCC, cat. CRL-5837, RRID:CVCL_1582), NCI-H196 (ATCC, cat. CRL-5823, RRID:CVCL_1509), NCI-H841 (ATCC, cat. CRL-5845, RRID:CVCL_1595), NCI-H1618 (ATCC, cat. CRL-5879, RRID:CVCL_1480), NCI-H1876 (ATCC, cat. CRL-5902, RRID:CVCL_1503), DMS 114 (ATCC, cat. CRL-2066; RRID:CVCL_1174), NCI-H211 (ATCC, cat. CRL-5824; RRID:CVCL_1529), and SW 1271 (ATCC, cat. CRL-2177, RRID:CVCL_1716). The small cell lung cancer cell line COR-L88 was purchased from Sigma-Aldrich (cat. 92031917-1VL, RRID:CVCL_1141). The non-small cell lung cancer cell lines NCI-H226 (RRID:CVCL_1544) and NCI-H322M (RRID:CVCL_1557) were established at the NCI and grown from internal seed stocks. Pooled donor human umbilical vein endothelial cells (HUVEC, Lonza, cat. CC-2519) and human mesenchymal stem cells (hMSC, Lonza, cat. PT-2501) were purchased from Lonza (Walkersville, MD).
Cell Culture. All cells were maintained in an incubator at 37 degrees C and 5% CO2 with 95% humidity. […]
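Note: spheroids exposed to compound for 7 days before viability readout.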
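Throughout, for viability, T/C: luminescent signal taken as surrogate of viable cell content; 100% = DMSO vehicle control viability and lower means growth inhibition.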

CC1COCCN1c1cc(-c2ccnn2C)c2ccnc(-c3ccn[nH]3)c2n1 (configuration not stated) + CC[C@@]1(O)C(=O)OCc2c1cc1n(c2=O)Cc2cc3c(CN(C)C)c(O)ccc3nc2-1
IC50 (curve of first compound, second compound 0.003 µM): 45.5 nM | IC50 (curve of first compound, second compound 0.00949 µM): < 31.6 nM | IC50 (curve of first compound, second compound 0.03 µM): < 31.6 nM | IC50 (curve of first compound, second compound 0.0949 µM): < 31.6 nM | IC50 (curve of first compound, second compound 0.3 µM): < 31.6 nM | viability, T/C (second compound 0.003 µM, first compound 0.0316 µM): 66.4% | viability, T/C (second compound 0.003 µM, first compound 0.1 µM): 14.3% | viability, T/C (second compound 0.003 µM, first compound 0.316 µM): 7.1% | viability, T/C (second compound 0.003 µM, first compound 1 µM): 2.65% | viability, T/C (second compound 0.003 µM, first compound 3.16 µM): 1.92% | viability, T/C (second compound 0.003 µM, first compound 10 µM): 2.07% | viability, T/C (second compound 0.00949 µM, first compound 0.0316 µM): 3.62% | viability, T/C (second compound 0.00949 µM, first compound 0.1 µM): 1.68% | viability, T/C (second compound 0.00949 µM, first compound 0.316 µM): 2.2% | viability, T/C (second compound 0.00949 µM, first compound 1 µM): 1.74% | viability, T/C (second compound 0.00949 µM, first compound 3.16 µM): 1.4% | viability, T/C (second compound 0.00949 µM, first compound 10 µM): 2% | viability, T/C (second compound 0.03 µM, first compound 0.0316 µM): 1.73% | viability, T/C (second compound 0.03 µM, first compound 0.1 µM): 1.36% | viability, T/C (second compound 0.03 µM, first compound 0.316 µM): 1.38% | viability, T/C (second compound 0.03 µM, first compound 1 µM): 0.71% | viability, T/C (second compound 0.03 µM, first compound 3.16 µM): 1.17% | viability, T/C (second compound 0.03 µM, first compound 10 µM): 1.55% | viability, T/C (second compound 0.0949 µM, first compound 0.0316 µM): 1.53% | viability, T/C (second compound 0.0949 µM, first compound 0.1 µM): 1.31% | viability, T/C (second compound 0.0949 µM, first compound 0.316 µM): 1.28% | viability, T/C (second compound 0.0949 µM, first compound 1 µM): 0.9% | viability, T/C (second compound 0.0949 µM, first compound 3.16 µM): 0.77% | viability, T/C (second compound 0.0949 µM, first compound 10 µM): 1.08% | viability, T/C (second compound 0.3 µM, first compound 0.0316 µM): 1.62% | viability, T/C (second compound 0.3 µM, first compound 0.1 µM): 1.43% | viability, T/C (second compound 0.3 µM, first compound 0.316 µM): 1.23% | viability, T/C (second compound 0.3 µM, first compound 1 µM): 0.85% | viability, T/C (second compound 0.3 µM, first compound 3.16 µM): 0.69% | viability, T/C (second compound 0.3 µM, first compound 10 µM): 0.67%

CC1COCCN1c1cc(-c2ccnn2C)c2ccnc(-c3ccn[nH]3)c2n1 (configuration not stated)
viability, T/C (compound 0.0316 µM): 107% and 114% and 106% | viability, T/C (compound 0.1 µM): 78.3% and 89.9% and 97.7% | viability, T/C (compound 0.316 µM): 22.6% and 21.9% and 32.2% | viability, T/C (compound 1 µM): 6.79% and 3.9% and 8.44% | viability, T/C (compound 3.16 µM): 1.99% and 1.74% and 1.91% | viability, T/C (compound 10 µM): 3.29% and 2.26% and 3.3% | IC50 (curve of compound): 180 nM and 197 nM and 232 nM
